# Assay results as given in patent US11414429B2, “Compound or pharmaceutically acceptable salt thereof” (RIKEN, priority 2016, dated 2022).
# pIC50: −log10 of the molar value. Where two headings read alike, the source gives them in different places.
# Key:
# tankyrase 1 (TNKS 1) = target: T1, tankyrase 1 (TNKS 1) (Homo sapiens, UniProt O95271); assay: Tankyrase inhibitory activity test (ELISA, self-polyADP ribosylation), tankyrase 1; type: biochemical; conditions: tankyrase 1, ELISA, self-polyADP ribosylation; read-out: TNKS1 inhibitory activity (IC50 class)
# T1 construct: 1,024-1,327aa; made in house; host or cells: cell-free protein synthesis system
# Procedure: (§1) (Test Example 1) Tankyrase Inhibitory Activity Test
# (§2) For each of the compounds obtained in Examples (the test target compounds), the tankyrase inhibitory activity (an inhibitory activity against tankyrase 1 (TNKS 1) and an inhibitory activity against tankyrase 2 (TNKS 2)) was evaluated by measuring the enzymatic activity of tankyrase 1 and the enzymatic activity of tankyrase 2 by the ELISA technique using self-polyADP ribosylation as an index. First, Flag-tag fusion tankyrase 1 (1,024-1,327aa, SAM+PARP) and tankyrase 2 (613-1, 116aa, ANK5+SAM+PARP) were each synthesized by a cell-free protein synthesis system and diluted with a Tris buffer (50 mM Tris-HCl (pH 8.0), 150 mM NaCl, 10% glycerol). Then, 50 μL of the diluted tankyrase 1 or tankyrase 2 was added to a plate on which the anti-FLAGM 2 monoclonal antibody was immobilized (Anti-FLAG high sensitivity M2 coated plate) (SIGMA Corporation), and was allowed to stand at 4° C. overnight. Thereafter, the plate was washed four times with a PBS buffer containing 0.1% Triton X-100 (PBST buffer).
# (§3) Subsequently, the test target compound diluted with an assay buffer (50 mM Tris-HCl (pH 8.0), 4 mM MgCl2, 0.2 mM DTT) (using DMSO as a control) was added to each well of the plate and was allowed to stand at room temperature for 10 minutes. Thereafter, a biotin-labeled NAD solution (225 μM NAD, 25 μM 6-Biotin-17-NAD (Trevigen Inc.)) was added as a donor substrate and mixed with the resultant test target compound, and the reaction was allowed to proceed at 30° C. for 45 minutes. Instead of the biotin-labeled NAD solution, distilled water was added to blank wells. After the reaction, the plate was washed four times with the PBST buffer. Thereafter, HRP (horseradish peroxidase)-labeled streptavidin (Trevigen Inc.) diluted 1,000-fold with the PBS buffer was added to each well, and the reaction was allowed to proceed at room temperature for 20 minutes. After the plate was washed four times with the PBST buffer, a chemiluminescent substrate solution TACS-Sapphire (Trevigen Inc.) was added to each well and the reaction was allowed to proceed at room temperature for 20 minutes. Then, the chemiluminescence intensity was measured using a chemiluminescence measuring apparatus.
# (§4) The residual enzyme activity in the presence of the test target compound was determined in accordance with the following formula. Based on the residual enzyme activity at multiple concentrations of the test target compound, an enzyme inhibition activity was calculated as a 50% inhibitory concentration (IC50 value) using data analysis software named Origin (LightStone Corp.).
# tankyrase 2 (TNKS 2) = target: T2, tankyrase 2 (TNKS 2) (Homo sapiens, UniProt Q9H2K2); assay: Tankyrase inhibitory activity test (ELISA, self-polyADP ribosylation), tankyrase 2; type: biochemical; conditions: tankyrase 2, ELISA, self-polyADP ribosylation; read-out: TNKS2 inhibitory activity (IC50 class)
# T2 construct: 613-1, 116aa; made in house; host or cells: cell-free protein synthesis system
# Procedure: as §1, §2, §3, §4
# [1] = system: human colorectal cancer cell line, COLO-320DM; assay: Cell proliferation inhibitory activity test (Celltiter-Glo Luminescent Cell Viability Assay); type: cell-based; conditions: COLO-320DM cells, 96 hours
# Procedure: (Test Example 2) Cell Proliferation Inhibitory Activity Test
# The cell proliferation inhibitory activity of the compound obtained in each of Examples against human colorectal cancer cell line, COLO-320DM was evaluated by Celltiter-Glo Luminescent Cell Viability Assay (Promega Corporation, G7573). The COLO-320 DM cells were cultured in a RPMI-1640 medium (Wako Pure Chemical Industries, Ltd., 189-02025) containing 10% fetal bovine serum and 2 mM of glutamine. The cultured cells were washed with PBS and then detached with trypsin/EDTA to prepare a cell solution containing 3×10^4 cells/mL.
# Next, the cell solution was seeded in a 96 well microplate (Thermo/Nunc, 136101) in an amount of 70 μL/well and was cultured overnight under conditions at 37° C. with 5% CO2. On the next day, 10 μL/well of a solution in which the test target compound (DMSO solution) was diluted with the cell culture medium (a final DMSO concentration of 1%) was added and the reaction was allowed to proceed under conditions at 37° C. with 5% CO2 for 96 hours (a 1% DMSO solution was used as a control). Subsequently, 80 μL/well of Celltiter-Glo Luminescent Cell Viability Assay reagent (Promega Corporation, G7573) was added, followed by agitation for 2 minutes with a shaker under shielding with aluminum foil. Thereafter, the resultant solution was allowed to stand for reaction at room temperature for 10 minutes.
# After that, the luminescent signal was measured with a luminometer (Biotech, Synergy). The cell proliferation inhibitory activity was evaluated by obtaining a percentage of a cell proliferation volume of each compound-added group with respect to a cell proliferation volume (100%) of a control group in which no test target component solution was added, and calculating a value of compound concentration (GI50) required to reduce the remaining cell volume to 50% of the remaining cell volume of the control. […] The results are shown in Tables 120 to 123 together with the results of the tankyrase inhibition activity test.
# [2] = read-out: COLO-320 DM cell proliferation inhibitory activity (GI50 class)
# [3] = class symbols, read-out: COLO-320 DM (cell proliferation inhibitory activity, GI50 value)
# T2 sequence (Q9H2K2 613-1166): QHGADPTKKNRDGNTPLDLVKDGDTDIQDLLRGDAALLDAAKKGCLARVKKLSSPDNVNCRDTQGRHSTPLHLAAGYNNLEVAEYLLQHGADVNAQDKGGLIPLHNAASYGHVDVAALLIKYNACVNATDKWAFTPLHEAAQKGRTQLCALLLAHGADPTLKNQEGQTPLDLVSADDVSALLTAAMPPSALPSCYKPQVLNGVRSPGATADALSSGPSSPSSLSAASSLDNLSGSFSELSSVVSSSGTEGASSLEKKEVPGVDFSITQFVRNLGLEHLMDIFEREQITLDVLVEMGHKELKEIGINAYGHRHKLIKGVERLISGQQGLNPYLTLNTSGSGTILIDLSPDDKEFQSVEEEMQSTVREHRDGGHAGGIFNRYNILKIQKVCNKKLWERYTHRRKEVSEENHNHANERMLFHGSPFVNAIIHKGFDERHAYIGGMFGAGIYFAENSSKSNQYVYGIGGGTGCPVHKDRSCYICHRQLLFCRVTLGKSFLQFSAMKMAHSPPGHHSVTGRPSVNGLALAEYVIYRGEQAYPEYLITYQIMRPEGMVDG
# T1 sequence (O95271 1024-1327): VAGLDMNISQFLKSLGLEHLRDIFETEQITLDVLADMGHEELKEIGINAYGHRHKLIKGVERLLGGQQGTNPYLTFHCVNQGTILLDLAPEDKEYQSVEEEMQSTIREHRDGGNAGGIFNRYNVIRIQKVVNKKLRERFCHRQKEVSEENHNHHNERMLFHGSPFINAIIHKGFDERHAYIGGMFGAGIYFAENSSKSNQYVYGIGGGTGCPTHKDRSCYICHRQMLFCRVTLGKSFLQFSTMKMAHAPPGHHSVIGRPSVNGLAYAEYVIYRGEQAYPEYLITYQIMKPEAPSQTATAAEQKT
pIC50 (tankyrase 1 (TNKS 1)),pIC50 (tankyrase 2 (TNKS 2)),"GI50 [1, 2] [nM]","GI50 [1, 3] [nM]",Compound
> 7.70,> 7.70,600 to 1000,–,"CN(C)CCOc1cc(F)c2c(c1)C(=O)OC21CCN(c2nc3c(c(=O)[nH]2)CCCN3C)CC1 [Example 7, 5-[2-(dimethylamino)ethoxy]-7-fluoro-1′-(8-methyl-4-oxo-3,4,5,6,7,8-hexahydropyrido[2,3-d]pyrimidin-2-yl)-3H-spiro[isobenzofuran-1,4′-piperidin]-3-one]"
6.70 to 7.70,6.70 to 7.70,600 to 1000,–,"O=c1[nH]c(N2CCC3(CC2)CN(Cc2cccnc2)c2ccccc23)nc2c1CCCC2 [Example 101, 2-[1-(pyridin-3-ylmethyl)spiro[indoline-3,4′-piperidin]-1′-yl]-5,6,7,8-tetrahydroquinazolin-4(3H)-one]"
> 7.70,> 7.70,100 to 600,–,"CN1CCCc2c1nc(N1CCC3(CC1)C(=O)Nc1cccc(F)c13)[nH]c2=O [Example 185, 2-(4-fluoro-2-oxospiro [indoline-3,4′-piperidin]-1′-yl)-8-methyl-5,6,7,8-tetrahydro-pyrido[2,3-d] pyrimidine-4(3H)-one]"
6.70 to 7.70,6.70 to 7.70,100 to 600,–,"CCOC(=O)c1cc(Cl)c2c(c1)N(Cc1cccnc1)CC21CCN(c2nc3c(c(=O)[nH]2)CCCC3)CC1 [Example 193, ethyl 4-chloro-1′-(4-oxo-3,4,5,6,7,8-hexahydroquinazolin-2-yl)-1-(pyridin-3-yl) methylspiro [indoline-3,4′-piperidine]-6-carboxylate]"
> 7.70,> 7.70,100 to 600,–,"O=c1[nH]c(N2CCC3(CC2)CN(Cc2cccnc2)c2cccc(Cl)c23)nc2c1CCCC2 [Example 221, 2-[4-chloro-1-(pyridin-3-yl)methylspiro [indoline-3,4′-piperidin] 1′-yl)-5,6,7,8-tetrahydro quinazolin-4(3H)-one]"
> 7.70,> 7.70,100 to 600,–,"O=C1N(Cc2cccnc2)c2cccc(Cl)c2C12CCN(c1nc3c(c(=O)[nH]1)CCCC3)CC2 [Example 226, 4-chloro-1′-(4-oxo-3,4,5,6,7,8-hexahydroquinazolin-2-yl)-1-(pyridin-3-ylmethyl) spiro [indoline-3,4′-piperidin]-2-one]"
> 7.70,> 7.70,100 to 600,–,"CN1C(=O)C2(CCN(c3nc4c(c(=O)[nH]3)CCCC4)CC2)c2c(Cl)cc(O)cc21 [Example 234, 4-chloro-6-hydroxy-1-methyl-1′-(4-oxo-3,4,5,6,7,8-hexahydro-quinazolin-2-yl)spiro [indoline-3,4′-piperidin]-2-one]"

# The remaining lines, values behind:
Compound,pIC50 (tankyrase 1 (TNKS 1)),pIC50 (tankyrase 2 (TNKS 2)),"GI50 [1, 2] [nM]","GI50 [1, 3] [nM]"
"CN(C)C(=O)COc1cc(F)c2c(c1)C(=O)OC21CCN(c2nc3c(c(=O)[nH]2)CCCN3C)CC1 [Example 55, 2-{[7-fluoro-1′-(8-methyl-4-oxo-3,4,5,6,7,8-hexahydro-pyrido[2,3-d)pyrimidin-2-yl)-3-oxo-3H-spiro[isobenzo-furan-1,4′-piperidin)-5-yl)oxy}-N,N-dimethyl-acetamid]",> 7.70,> 7.70,600 to 1000,–
"COc1cccc(CN2CC3(CCN(c4nc5c(c(=O)[nH]4)CCCC5)CC3)c3ccccc32)c1 [Example 99, 2-[1-(3-methoxy-benzyl)spiro[indoline-3,4′-piperidin]-1′-yl]-5,6,7,8-tetrahydroquinazolin-4(3H)-one]",6.70 to 7.70,> 7.70,600 to 1000,–
"O=c1[nH]c(N2CCC3(CC2)CN(Cc2ccncc2)c2ccccc23)nc2c1CCCC2 [Example 100, 2-[1-(pyridin-4-ylmethyl)spiro[indoline-3,4′-piperidin]-1′-yl]-5,6,7,8-tetrahydroquinazolin-4(3H)-one]",> 7.70,6.70 to 7.70,600 to 1000,–
"COc1ccc2c(c1)C1(CCN(c3nc4c(c(=O)[nH]3)CCCC4)CC1)CN2C [Example 147, 2-(5-methoxy-1-meth-ylspiro[indoline-3,4′-piperidin]-1′-yl)-5,6,7,8-tetrahydroquinazolin-4(3H)-one]",6.70 to 7.70,> 7.70,600 to 1000,–
"O=C(NCCN1CCOCC1)c1cc(Cl)c2c(c1)N(Cc1cccnc1)CC21CCN(c2nc3c(c(=O)[nH]2)CCCC3)CC1 [Example 196, 4-chloro-N-(2-morpho-linoethyl)-1′-(4-oxo-3,4,5,6,7,8-hexahydro-quinazolin-2-yl)-1-(pyridin-3-ylmethyl) spiro[indoline-3,4′-piperidine]-6-carboxamide]",> 7.70,> 7.70,600 to 1000,–
"O=c1[nH]c(N2CCC3(CC2)CN(Cc2cccnc2)c2cc(Cl)ccc23)nc2c1CCCC2 [Example 218, 2-(6-chloro-1-(pyridin-3-ylmethyl)spiro [indoline-3,4′-piperidin]-1′-yl)-5,6,7,8-tetrahydro-quinazolin-4(3H)-one]",6.70 to 7.70,> 7.70,600 to 1000,–
"O=c1[nH]c(N2CCC3(CC2)CN(Cc2cccnc2)c2cc(F)cc(F)c23)nc2c1CCCC2 [Example 251, 2-[4,6-difluoro-1-(pyridin-3-yl)methyl-spiro [indoline-3,4′-piperidin]-1′-yl]-5,6,7,8-tetrahydro-quinazolin-4(3H)-one]",> 7.70,> 7.70,100 to 600,–
"O=c1[nH]c(N2CCC3(CC2)CN(Cc2cncnc2)c2cc(F)cc(F)c23)nc2c1CCCC2 [Example 252, 2-[4,6-difluoro-1-(pyrimidin-5-yl)methyl-spiro [indoline-3,4′-piperidin]-1′-yl]-5,6,7,8-tetrahydro-quinazolin-4(3H)-one]",> 7.70,> 7.70,100 to 600,–
CN1CCCc2c1nc(N1CCC3(CC1)C(=O)N(CC(F)(F)F)c1cc(OCC(=O)O)cc(F)c13)[nH]c2=O [Example 408],–,–,–,< 100
"CN1CCCc2c1nc(N1CCC3(CC1)C(=O)N(C)c1c(OC4CCOC4)ccc(Cl)c13)[nH]c2=O (stereo not drawn) [Example 433, 4-chloro-1′-(4-hydroxy-8-methyl-6,7-dihydro-5H-pyrido[2,3-d]pyrimidin-2-yl)-1-methyl-7-(oxolan-3-yloxy) spiro[indole-3,4′-piperidin]-2-one]",–,–,–,< 100
"CN1CCCc2c1nc(N1CCC3(CC1)C(=O)N(C)c1cc(C4CCC(O)CC4)cc(F)c13)[nH]c2=O (stereo not drawn) [Example 468, 4-fluoro-6-(4-hydroxycyclohexyl)-1-methyl-1′-(8-methyl-4-oxo-3,4,5,6,7,8-hexahydropyrido[2,3-d]pyrimidin-2-yl)spiro[indole-3,4′-piperidine]-2(1H)-one]",–,–,–,< 100
